Laboratory results as given in patent US12077503B2, “Substituted cyclic amides and their use as herbicides” (FMC CORPORATION, priority 2015, dated 2024).

How the values were obtained:
Type in all cases: in vivo
[1] = tested on: Kochia (Kochia scoparia); assay: Test A preemergence
How it was run: (§1)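 Visual injury, scored on a 0–100 scale relative to untreated controls, was recorded about 10 d after application. Treatments were a preemergence soil spray over planted seeds or a postemergence spray on plants at the one- to two-leaf stage, 2 to 10 cm tall, all in loam soil–sand blend in the greenhouse.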

[2] = tested on: barnyardgrass (Echinochloa crus-galli); assay: Test A preemergence
How it was run: as §1

[3] = tested on: giant foxtail (Setaria faberii); assay: Test A preemergence
How it was run: as §1

[4] = tested on: pigweed (Amaranthus retroflexus); assay: Test A preemergence
[5] = tested on: ragweed (common ragweed, Ambrosia elatior); assay: Test A preemergence
How it was run: as §1

[6] = tested on: ryegrass, Italian (Italian ryegrass, Lolium multiflorum); assay: Test A preemergence
How it was run: as §1

[7] = tested on: Galium (catchweed bedstraw, Galium aparine); assay: Test A postemergence; settings: postemergence, 0 to 100 scale (0 no effect, 100 complete control)
How it was run: as §1

[8] = tested on: Kochia (Kochia scoparia); assay: Test A postemergence; settings: postemergence, 0 to 100 scale (0 no effect, 100 complete control)
How it was run: as §1

[9] = tested on: barnyardgrass (Echinochloa crus-galli); assay: Test A postemergence; settings: postemergence, 0 to 100 scale (0 no effect, 100 complete control)
How it was run: as §1

[10] = tested on: blackgrass (Alopecurus myosuroides); assay: Test A postemergence; settings: postemergence, 0 to 100 scale (0 no effect, 100 complete control)
How it was run: as §1

[11] = tested on: corn (Zea mays); assay: Test A postemergence; settings: postemergence, 0 to 100 scale (0 no effect, 100 complete control)
How it was run: as §1

[12] = tested on: giant foxtail (Setaria faberii); assay: Test A postemergence; settings: postemergence, 0 to 100 scale (0 no effect, 100 complete control)
How it was run: as §1

[13] = tested on: pigweed (Amaranthus retroflexus); assay: Test A postemergence; settings: postemergence, 0 to 100 scale (0 no effect, 100 complete control)
How it was run: as §1

[14] = tested on: ragweed (common ragweed, Ambrosia elatior); assay: Test A postemergence; settings: postemergence, 0 to 100 scale (0 no effect, 100 complete control)
How it was run: as §1

[15] = tested on: ryegrass, Italian (Italian ryegrass, Lolium multiflorum); assay: Test A postemergence; settings: postemergence, 0 to 100 scale (0 no effect, 100 complete control)
How it was run: as §1

[16] = tested on: wheat (Triticum aestivum); assay: Test A postemergence; settings: postemergence, 0 to 100 scale (0 no effect, 100 complete control)
How it was run: as §1

[17] = tested on: barnyardgrass (Echinochloa crus-galli); assay: Test B flooded paddy test; settings: Flood, 250 g ai/ha; 0 to 100 scale where 0 is no effect and 100 is complete control; 13 to 15 d
How it was run: (§2)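 Compound goes directly into floodwater once pots are flooded 3 cm above soil, targeting plants at two leaves; the water depth is then held for the test duration. Plants sit 13–15 d in a greenhouse and are rated visually, 100 denoting complete control.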

[18] = tested on: ducksalad (Heteranthera limosa); assay: Test B flooded paddy test; settings: Flood, 250 g ai/ha; 0 to 100 scale where 0 is no effect and 100 is complete control; 13 to 15 d
How it was run: as §2

[19] = tested on: rice (Oryra sativa); assay: Test B flooded paddy test; settings: Flood, 250 g ai/ha; 0 to 100 scale where 0 is no effect and 100 is complete control; 13 to 15 d
How it was run: as §2

[20] = tested on: sedge, umbrella (small-flower umbrella sedge, Cyperus difformis); assay: Test B flooded paddy test; settings: Flood, 250 g ai/ha; 0 to 100 scale where 0 is no effect and 100 is complete control; 13 to 15 d
How it was run: as §2

[21] = 125 g ai/ha, Preemergence, visual injury after approximately 10 d, 0 to 100 scale where 0 is no effect and 100 is complete control
[22] = 500 g ai/ha, preemergence, 0 to 100 scale, 0 = no effect, 100 = complete control
[23] = 125 g ai/ha, visual rating after approx. 10 d
[24] = 500 g ai/ha, visual injury, approx. 10 d

O=C1NCC(c2csc(Br)c2)C1C(=O)Nc1ccccc1F (stereo not drawn) [Compound 648]
Plant response rating, Kochia [1, 21]: 0
Plant response rating, Kochia [1, 22]: 50
Plant response rating, Barnyardgrass [2, 21]: 70
Plant response rating, Barnyardgrass [2, 22]: 90
Plant response rating, Foxtail, Giant [3, 21]: 60
Plant response rating, Foxtail, Giant [3, 22]: 80
Plant response rating, Pigweed [4, 21]: 0
Plant response rating, Pigweed [4, 22]: 40
Plant response rating, Ragweed [5, 21]: 0
Plant response rating, Ragweed [5, 22]: 20
Plant response rating, Ryegrass, Italian [6, 21]: 30
Plant response rating, Ryegrass, Italian [6, 22]: 40
Plant response rating, Galium [7, 23]: 20
Plant response rating, Galium [7, 24]: 60
Plant response rating, Kochia [8, 23]: 0
Plant response rating, Kochia [8, 24]: 0
Plant response rating, Barnyardgrass [9, 23]: 70
Plant response rating, Barnyardgrass [9, 24]: 80
Plant response rating, Blackgrass [10, 23]: 30
Plant response rating, Blackgrass [10, 24]: 50
Plant response rating, Corn [11, 23]: 0
Plant response rating, Corn [11, 24]: 0
Plant response rating, Foxtail, Giant [12, 23]: 10
Plant response rating, Foxtail, Giant [12, 24]: 50
Plant response rating, Pigweed [13, 23]: 30
Plant response rating, Pigweed [13, 24]: 50
Plant response rating, Ragweed [14, 23]: 0
Plant response rating, Ragweed [14, 24]: 30
Plant response rating, Ryegrass, Italian [15, 23]: 30
Plant response rating, Ryegrass, Italian [15, 24]: 50
Plant response rating, Wheat [16, 23]: 0
Plant response rating, Wheat [16, 24]: 0
Plant response rating, Barnyardgrass [17]: 20
Plant response rating, Ducksalad [18]: 100
Plant response rating, Rice [19]: 20
Plant response rating, Sedge, Umbrella [20]: 0
